Source: patent publication US20200131196A1 (Mount Tam Therapeutics, Inc., priority 2017, published 2020)
Read-outs that look alike come from different tables or passages of the source.

Key:
[1] = mouse, in vivo, ip
Description: (§1) Tumor growth was monitored daily. […] Significance was set at p≤0.05.

[2] = at 30 days
Description: as §1
For Body Wt. % Δ from Baseline, Mean in this document: test concentration or dose not given here.
For Body Wt. % Δ from Baseline, Median in this document: test concentration or dose not given here.
For Change in Body Weight Day 1-30, Mean in this document: test concentration or dose not given here.
For Change in Body Weight Day 1-30, Median in this document: test concentration or dose not given here.
For Day 30 Body Weight, Mean in this document: test concentration or dose not given here.

Structure (SMILES): CO[C@H]1C[C@@H]2CC[C@@H](C)[C@@](O)(O2)C(=O)C(=O)N2CCCC[C@H]2C(=O)O[C@H]([C@H](C)C[C@H]2C[C@H]3C[C@@H]2C[C@@H]3O)CC(=O)[C@H](C)/C=C(\C)[C@@H](O)[C@@H](OC)C(=O)[C@H](C)C[C@H](C)/C=C/C=C/C=C/1C [Formula II, C37-[(1R,2S,4R,5S)-5-hyhroxybicyclo[2.2.1]heptane] rapamycin]
- Body Wt. % Δ from Baseline, Mean [1]: 14.68%
- Body Wt. % Δ from Baseline, Median [1]: 14.64%
- Change in Body Weight Day 1-30, Mean [1]: 3.13
- Change in Body Weight Day 1-30, Median [1]: 3.08
- Day 30 Body Weight, Mean [1]: 24.37 g
- Day 30 Body Weight, Median [1]: 24.12 g
- Percent Survival [2]: 100%
- Percent Survival ([2]; listed as Formula I): 100%
